Measured values published in PubChem BioAssay (NCI).
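Step 1: Grow cells in 96-well plates. Step 2: Expose to compound for 48 hours at 5 concentrations. Step 3: Interpolate endpoints linearly; if unreached, use highest concentration. TGI: concentration producing complete growth inhibition.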

Columns and labels:
Assay in all cases: growth of human tumour cells (NCI), 48 h
[1] = tested on: NCI-H226 lung
[2] = tested on: A549 NSCLC
[3] = tested on: UACC-62 melanoma
[4] = tested on: MOLT-4 leukemia
[5] = tested on: DMS 114 small cell lung
[6] = tested on: SNB-19 CNS
[7] = tested on: KM20L2 colon
[8] = tested on: LOX IMVI melanoma
[9] = tested on: KM12 colon
[10] = tested on: SK-MEL-28 melanoma
[11] = tested on: NCI-H460 lung
[12] = tested on: HCC-2998 colon
[13] = tested on: OVCAR-8 ovarian
[14] = tested on: K-562 leukemia
[15] = tested on: SN12C renal
[16] = tested on: EKVX NSCLC
[17] = tested on: DLD-1 colon
[18] = tested on: OVCAR-3 ovarian
[19] = tested on: COLO 205 colon
[20] = tested on: NCI-H522 lung
[21] = tested on: UO-31 renal
[22] = tested on: UACC-257 melanoma
[23] = tested on: 786-0 renal
[24] = tested on: SK-MEL-2 melanoma
[25] = tested on: HOP-92 NSCLC
[26] = tested on: HT29 colon
[27] = tested on: SF-295 CNS
[28] = tested on: IGROV1 ovarian
[29] = tested on: HCT-116 colon
[30] = tested on: HL-60(TB) leukemia
[31] = tested on: A498 renal
[32] = tested on: SNB-75 CNS
[33] = tested on: M19-MEL melanoma
[34] = tested on: MALME-3M melanoma
[35] = tested on: SR leukemia
[36] = tested on: U251 CNS
[37] = tested on: OVCAR-5 ovarian
[38] = tested on: LXFL 529 NSCLC
[39] = tested on: HCT-15 colon
[40] = tested on: SW-620 colon
[41] = tested on: HOP-62 NSCLC
[42] = tested on: OVCAR-4 ovarian
[43] = tested on: CAKI-1 renal
[44] = tested on: MDA-N
[45] = tested on: T-47D breast
[46] = tested on: NCI/ADR-RES ovarian
[47] = tested on: CCRF-CEM leukemia
[48] = tested on: NCI-H23 lung
[49] = tested on: RPMI-8226 leukemia
[50] = tested on: RXF 393 renal
[51] = tested on: SK-MEL-5 melanoma
[52] = tested on: SK-OV-3 ovarian
[53] = tested on: MCF7 breast
[54] = tested on: HS 578T breast
[55] = tested on: MDA-MB-435
[56] = tested on: SF-539 CNS
[57] = tested on: BT-549 breast
[58] = tested on: MDA-MB-231 breast
[59] = tested on: SF-268 CNS
[60] = tested on: M14 melanoma
[61] = tested on: PC-3 prostate
[62] = tested on: ACHN renal
[63] = tested on: TK-10 renal
[64] = tested on: DU-145 prostate

## CC(=O)[O-].[O-]c1c(Cl)cc(Cl)cc1/C=N/Nc1ccccn1.[Zn+2]
[1]
  TGI: > 100 µM
[2]
  TGI: > 100 µM
[3]
  TGI: 2.43 µM
[4]
  TGI: 0.581 µM
[5]
  TGI: 605 nM
[6]
  TGI: > 100 µM
[7]
  TGI: > 100 µM
[8]
  TGI: > 100 µM
[9]
  TGI: > 100 µM
[10]
  TGI: > 100 µM
[11]
  TGI: > 100 µM
[12]
  TGI: > 100 µM
[13]
  TGI: 0.837 µM
[14]
  TGI: > 100 µM
[15]
  TGI: > 100 µM
[16]
  TGI: 9.01 µM
[17]
  TGI: > 100 µM
[18]
  TGI: 0.707 µM
[19]
  TGI: > 100 µM
[20]
  TGI: 20.6 µM
[21]
  TGI: > 100 µM
[22]
  TGI: > 100 µM
[23]
  TGI: > 100 µM
[24]
  TGI: 1.98 µM
[25]
  TGI: 0.803 µM
[26]
  TGI: > 100 µM
[27]
  TGI: 5.41 µM
[28]
  TGI: > 100 µM
[29]
  TGI: > 100 µM
[30]
  TGI: 0.736 µM
[31]
  TGI: > 100 µM
[32]
  TGI: > 100 µM
[33]
  TGI: > 100 µM
[34]
  TGI: > 100 µM
[35]
  TGI: 0.675 µM
[36]
  TGI: > 100 µM
[37]
  TGI: 6.43 µM
[38]
  TGI: > 100 µM
[39]
  TGI: > 100 µM

## c1ccc(C2=Nc3cccc4cccc(c34)N2)cc1
[1]
  TGI: > 100 µM
[2]
  TGI: > 100 µM
[40]
  TGI: 39.3 µM
[3]
  TGI: > 100 µM
[4]
  TGI: > 54.8 µM
[6]
  TGI: > 100 µM
[8]
  TGI: 60 µM
[9]
  TGI: > 85.1 µM
[41]
  TGI: > 100 µM
[10]
  TGI: > 100 µM
[42]
  TGI: 42.6 µM
[11]
  TGI: > 100 µM
[12]
  TGI: > 100 µM
[43]
  TGI: > 94.6 µM
[44]
  TGI: > 100 µM
[45]
  TGI: 21.9 µM
[13]
  TGI: > 87 µM
[14]
  TGI: > 72.9 µM
[15]
  TGI: > 100 µM
[16]
  TGI: > 100 µM
[46]
  TGI: > 72.1 µM
[47]
  TGI: 28.7 µM
[48]
  TGI: > 100 µM
[18]
  TGI: 45.2 µM
[19]
  TGI: 40.9 µM
[20]
  TGI: 24.8 µM
[49]
  TGI: > 84.6 µM
[21]
  TGI: > 56.1 µM
[22]
  TGI: > 100 µM
[50]
  TGI: 45.6 µM
[51]
  TGI: > 100 µM
[52]
  TGI: > 100 µM
[53]
  TGI: > 69.4 µM
[54]
  TGI: > 100 µM
[55]
  TGI: > 85.8 µM
[23]
  TGI: > 61.8 µM
[24]
  TGI: > 93.1 µM
[25]
  TGI: 52.7 µM
[26]
  TGI: > 100 µM
[56]
  TGI: > 100 µM
[27]
  TGI: > 100 µM
[57]
  TGI: > 85.7 µM
[58]
  TGI: 54.7 µM
[59]
  TGI: > 90.6 µM
[60]
  TGI: > 100 µM
[28]
  TGI: > 94.5 µM
[29]
  TGI: 50.8 µM
[61]
  TGI: 68 µM
[30]
  TGI: 8.14 µM
[62]
  TGI: 62.5 µM
[31]
  TGI: > 100 µM
[63]
  TGI: > 72 µM
[32]
  TGI: > 100 µM
[34]
  TGI: > 77.6 µM
[35]
  TGI: 52.9 µM
[36]
  TGI: > 100 µM
[64]
  TGI: > 100 µM
[37]
  TGI: > 100 µM
[39]
  TGI: > 96.1 µM

## O=c1[nH]c(=O)n(C/C=C/CBr)nc1Br
[1]
  TGI: 27.8 µM
[2]
  TGI: 30.8 µM
[40]
  TGI: 29.5 µM
[3]
  TGI: 27.3 µM
[4]
  TGI: 43.3 µM
[6]
  TGI: 28.1 µM
[8]
  TGI: 5.78 µM
[9]
  TGI: 28.8 µM
[41]
  TGI: 37.9 µM
[10]
  TGI: 28.2 µM
[42]
  TGI: 22.9 µM
[11]
  TGI: 37 µM
[12]
  TGI: 28.3 µM
[43]
  TGI: 24.9 µM
[44]
  TGI: 27.5 µM
[45]
  TGI: 28.2 µM
[13]
  TGI: 29.9 µM
[14]
  TGI: 47.7 µM
[15]
  TGI: 28.1 µM
[16]
  TGI: 28.8 µM
[46]
  TGI: 45.6 µM
[47]
  TGI: 30.7 µM
[48]
  TGI: 25.5 µM
[18]
  TGI: 23.9 µM
[19]
  TGI: 27.8 µM
[20]
  TGI: 14.5 µM
[49]
  TGI: 23.3 µM
[21]
  TGI: 32.5 µM
[22]
  TGI: 24.9 µM
[50]
  TGI: 25.4 µM
[51]
  TGI: 25.9 µM
[53]
  TGI: 22.2 µM
[54]
  TGI: 53.8 µM
[55]
  TGI: 27.2 µM
[23]
  TGI: 26.3 µM
[24]
  TGI: 26 µM
[25]
  TGI: 26.5 µM
[26]
  TGI: 26.1 µM
[56]
  TGI: 27.7 µM
[27]
  TGI: 31.1 µM
[57]
  TGI: 27.7 µM
[58]
  TGI: 14.1 µM
[59]
  TGI: 28.5 µM
[60]
  TGI: 27.6 µM
[28]
  TGI: 29.5 µM
[29]
  TGI: 26.3 µM
[61]
  TGI: 24.6 µM
[30]
  TGI: 24.5 µM
[62]
  TGI: 25.8 µM
[31]
  TGI: 26.3 µM
[63]
  TGI: 31.7 µM
[32]
  TGI: 24.3 µM
[34]
  TGI: 27.5 µM
[35]
  TGI: 14.1 µM
[36]
  TGI: 21.8 µM
[64]
  TGI: > 100 µM
[37]
  TGI: 31.1 µM
[39]
  TGI: 27.9 µM

## COC1(CC[C@H](C)COC2OC(CO)C(O)C(O)C2O)O[C@H]2C[C@H]3[C@@H]4CC=C5C[C@@H](OC6OC(CO)C(O)C(OC7OC(CO)C(O)C(O)C7O)C6OC6OC(C)C(O)C(O)C6O)CC[C@]5(C)[C@H]4CC[C@]3(C)[C@H]2[C@@H]1C (some centres undefined)
[1]
  TGI: 18.6 µM
[2]
  TGI: 7.27 µM
[40]
  TGI: 5.87 µM
[3]
  TGI: > 39.2 µM
[4]
  TGI: > 27.3 µM
[6]
  TGI: 18.4 µM
[8]
  TGI: 6.06 µM
[9]
  TGI: 3.91 µM
[41]
  TGI: 12.4 µM
[10]
  TGI: 6.74 µM
[42]
  TGI: 14.9 µM
[11]
  TGI: 11.6 µM
[12]
  TGI: 11.6 µM
[43]
  TGI: 10.4 µM
[44]
  TGI: 27 µM
[45]
  TGI: 9.68 µM
[13]
  TGI: 9.47 µM
[14]
  TGI: > 47.9 µM
[15]
  TGI: > 31.1 µM
[16]
  TGI: > 51 µM
[46]
  TGI: 25.7 µM
[47]
  TGI: > 32.9 µM
[48]
  TGI: 18.9 µM
[18]
  TGI: 33.1 µM
[19]
  TGI: 16.2 µM
[20]
  TGI: 7.41 µM
[49]
  TGI: 23.6 µM
[21]
  TGI: 4.36 µM
[22]
  TGI: 22 µM
[50]
  TGI: 16.3 µM
[51]
  TGI: 16.9 µM
[52]
  TGI: 24.5 µM
[53]
  TGI: 37.7 µM
[54]
  TGI: 24.6 µM
[55]
  TGI: 4.24 µM
[23]
  TGI: 5.29 µM
[24]
  TGI: 25.2 µM
[25]
  TGI: 10.1 µM
[26]
  TGI: > 21.8 µM
[56]
  TGI: 4.85 µM
[27]
  TGI: 10.1 µM
[57]
  TGI: 22.5 µM
[58]
  TGI: 15.5 µM
[59]
  TGI: 15.2 µM
[28]
  TGI: 11.8 µM
[29]
  TGI: > 32.4 µM
[61]
  TGI: 16.6 µM
[30]
  TGI: 8.53 µM
[62]
  TGI: 36.3 µM
[31]
  TGI: 34.5 µM
[63]
  TGI: > 69.7 µM
[32]
  TGI: 7.25 µM
[34]
  TGI: 6.11 µM
[35]
  TGI: > 100 µM
[36]
  TGI: 4.02 µM
[64]
  TGI: 4.29 µM
[37]
  TGI: > 32.5 µM
[39]
  TGI: 7.43 µM
